Source: patent US6303638A, “Substituted pyridines as modulators of the mammalian neuronal nicotinic acetylcholine receptor” (The Regents of the University of California, priority 1999, dated 2001)
“And” between values parts separate entries of the source, which are not always exact repeats. Equal entries are not always repeated.

Tested on: humans
Experiment: not given
Settings: administered into the human blood stream, even in relatively small amounts; cited from earlier work
In the case of `CN1CCC[C@H]1c1cccnc1` [nicotine], the “central and peripheral effects of nicotine” value is given as “fever, increased heart rate, trembling, nausea, increased blood pressure and convulsions”.

Tested on: humans
Experiment: not given
Settings: taken orally; cited from earlier work
In the case of `CN1CCC[C@H]1c1cccnc1` [nicotine], the fatal oral dose is listed as 250 to 350 mg.

Biological target: T1, α4β2 nAChR (Rattus norvegicus, UniProt P09483+P12390)
T1 construct: made in house; host or cells: Sf9 insect cells infected with each recombinant baculovirus stock; membrane preparation
T1 sequence (P09483 31-630): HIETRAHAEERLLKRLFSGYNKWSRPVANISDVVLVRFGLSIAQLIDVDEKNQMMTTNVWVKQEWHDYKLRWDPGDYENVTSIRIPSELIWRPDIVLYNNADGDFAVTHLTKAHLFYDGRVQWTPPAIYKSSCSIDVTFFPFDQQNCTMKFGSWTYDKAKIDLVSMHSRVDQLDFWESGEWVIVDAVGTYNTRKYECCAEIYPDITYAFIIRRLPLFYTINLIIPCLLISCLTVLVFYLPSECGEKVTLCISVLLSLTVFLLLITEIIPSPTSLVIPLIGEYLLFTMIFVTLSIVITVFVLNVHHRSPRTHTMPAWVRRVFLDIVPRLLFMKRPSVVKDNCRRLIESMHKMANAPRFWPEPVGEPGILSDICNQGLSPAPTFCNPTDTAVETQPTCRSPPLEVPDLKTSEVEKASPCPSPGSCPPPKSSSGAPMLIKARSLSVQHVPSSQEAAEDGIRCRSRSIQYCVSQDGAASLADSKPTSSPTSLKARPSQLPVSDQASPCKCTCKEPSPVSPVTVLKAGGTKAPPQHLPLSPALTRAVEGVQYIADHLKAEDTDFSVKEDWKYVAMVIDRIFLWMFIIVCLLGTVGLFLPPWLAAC
T1 sequence (P12390 25-500): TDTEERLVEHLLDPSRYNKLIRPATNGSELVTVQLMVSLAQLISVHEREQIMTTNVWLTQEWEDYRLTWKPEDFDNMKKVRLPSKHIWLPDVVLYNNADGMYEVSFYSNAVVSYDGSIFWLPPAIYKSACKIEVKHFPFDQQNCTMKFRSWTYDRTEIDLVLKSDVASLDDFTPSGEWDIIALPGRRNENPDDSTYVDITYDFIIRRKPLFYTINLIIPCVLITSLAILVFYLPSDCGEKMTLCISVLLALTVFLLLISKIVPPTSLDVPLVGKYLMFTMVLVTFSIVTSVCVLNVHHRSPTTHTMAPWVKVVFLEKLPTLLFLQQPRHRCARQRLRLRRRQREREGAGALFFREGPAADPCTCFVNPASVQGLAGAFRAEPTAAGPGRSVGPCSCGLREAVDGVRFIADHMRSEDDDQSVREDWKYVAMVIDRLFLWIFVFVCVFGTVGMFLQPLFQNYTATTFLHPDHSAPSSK
Experiment: Inhibition of [3H](-)-nicotine binding to recombinant α4β2 nAChR
Settings: not given
Description: Representative compounds of the invention were investigated by way of the experimental protocol described below.
Production of recombinant α4β2 nAChR:
Recombinant baculovirus stocks containing inserts for the rat α4 and β2 nAChR subunits were independently amplified as described by Wang et al. (1996) J. Neurosci. Res. 44:350-354. Production of the α4β2 nAChR was achieved by infection of Sf9 insect cells with each recombinant viral stock. Cells were harvested 48-72 h post infection by centrifugation for 10 min at 100 g, then washed in a phosphate-bufferedsaline, and homogenized in a small volume of buffer (20 mM Tris-HCl, pH 7.4, 118 mM NaCl, […], 2.5 mM CaCl2, 1.2 mM MgSO4, and 1.0 mM EDTA), followed by centrifugation for 10 min at 300 g. The final step was centrifugation of the supernatant at 37000 g. The membrane pellet was resuspended in buffer and adjusted to 20 mg of total protein per 100 mL. These nAChR preparations were used immediately for binding assays or stored as single experiment aliquots at -80° C.
Reactions were terminated by addition of 3 mL ice-cold 0.9% NaCl followed by rapid vacuum filtration through filtermat B glass fiber filters and two 3-mL washes on the filter. Filters were pre-soaked at least 60 min in 0.1% w/v polyethyleneimine to reduce non-specific binding. […] The concentration of test compounds for 50% inhibition (IC50) was determined by iterative non-linear least-squares regression using the SigmaPlot program (Jandel Scientific Software, San Rafael, Calif.). The data reported are means±standard deviations with four determinations or are individual values for two determinations.
`N=C1NCCCN1Cc1ccc(Cl)nc1` [Compound 1, 1-(6-Chloro-3-pyridinyl)methyl-2-iminotetrahydropyrimidine] showed an IC50 of 0.058 µM.

Same assay, conditions: 1 nM [3H]nicotine, 30 min, 22° C., Sf9 cell membranes; individual values for two determinations; read-out: Inhibition of [3H](-)-nicotine binding to α4β2 nAChR IC50 (individual values for two determinations)
With `N=C1NCCCN1Cc1ccc(Cl)nc1` [Compound 1, 1-(6-Chloro-3-pyridinyl)methyl-2-iminotetrahydropyrimidine] the IC50 was 0.063 µM. With `C[N+](C)(C)Cc1ccc(Cl)nc1` [Compound 10, 1-(6-Chloro-3-pyridinyl)methyl-1,1,1-trimethylammonium chloride] the IC50 was 0.016 µM and 0.02 µM. With `CC[N+](CC)(CC)Cc1ccc(Cl)nc1` [Compound 11, 1-(6-Chloro-3-pyridinyl)methyl-1,1,1-triethylammonium chloride] the IC50 was 2.4 µM and 3.7 µM.

Same assay, conditions: 1 nM [3H]nicotine, 30 min, 22° C., Sf9 cell membranes; means ± standard deviations, four determinations; read-out: Inhibition of [3H](-)-nicotine binding to α4β2 nAChR IC50
`N=C1NCCCCN1Cc1ccc(Cl)nc1` [Compound 2, 1-[(6-Chloro-3-pyridinyl)methyl]-2-iminotetrahydrodiazepine] gave an IC50 of 0.0028 ± 0.001 µM. With `N=C1SCCN1Cc1ccc(Cl)nc1` [Compound 3, 1-(^6 -Chloro-3-pyridinyl)methyl-2-iminothiazolidine] the IC50 was 0.0023 ± 0.0003 µM. `N=C1SCCCN1Cc1ccc(Cl)nc1` [Compound 4, 1-[(6-Chloro-3-pyridinyl)methyl]-2-iminotetrahydrothiazine] showed an IC50 of 0.014 ± 0.004 µM. In the case of `N=C1CCCN1Cc1ccc(Cl)nc1` [Compound 5, 1-(6-Chloro-3-pyridinyl)methyl-2-iminopyrrolidine], the IC50 is reported as 0.0035 ± 0.0007 µM. For `N=C1CCCCN1Cc1ccc(Cl)nc1` [Compound 6, 1-[(6-Chloro-3-pyridinyl)methyl]-2-iminopiperidine], the IC50 was 0.011 ± 0.005 µM. `N=C1OCCN1Cc1ccc(Cl)nc1` [Compound 7, 1-[(6-Chloro-3-pyridinyl)methyl]-2-imino-1,3-oxazolidine] showed an IC50 of 0.0072 ± 0.002 µM. `N=c1[nH]ccn1Cc1ccc(Cl)nc1` [Compound 8, 1-[(6-Chloro-3-pyridinyl)methyl]-2-iminoimidazole] gave an IC50 of 0.023 ± 0.009 µM. With `N=c1sccn1Cc1ccc(Cl)nc1` [Compound 9, 1-(6-Chloro-3-pyridinyl)methyl-2-iminothiazole] the IC50 was 0.00091 ± 0.0004 µM. Work on `Clc1ccc(CN2CCC2)cn1` [Compound 12, 1-(6-Chloro-3-pyridinyl)methylazetidine] yielded an IC50 of 0.016 ± 0.014 µM. With `Clc1ccc(CN2CCCC2)cn1` [Compound 13, 1-(^6 -Chloro-3-pyridinyl)methylpyrrolidine] the IC50 was 0.0088 ± 0.0028 µM. `Clc1ccc(CN2CCCCC2)cn1` [Compound 14, 1-(^6 -Chloro-3-pyridinyl)methylpiperidine] gave an IC50 of 0.014 ± 0.003 µM.

Tested on: insect versus the mammalian nAChR
Experiment: not given
Settings: Kagabu et al. (1997); Chao et al. (1997); cited from earlier work
In the case of `N=C1NCCN1Cc1ccc(Cl)nc1` [1-[(6-chloro-3-pyridinyl)methyl]-2-imidazolidine], the “selectivity insect versus mammalian nAChR” value is listed as “selective for the mammalian versus the insect nAChR”. In the case of `O=[N+]([O-])NC1=NCCN1Cc1ccc(Cl)nc1` [imidacloprid], the “selectivity insect versus mammalian nAChR” value is given as “acts selectively at the insect versus the mammalian nAChR”.
